Assay results: patent US9441012B2, “Fluorinated epoxyketone-based compounds and uses thereof as proteasome inhibitors” (FLUORINOV PHARMA INC., priority 2012, dated 2016)

What was measured:
EKVX = experiment: NCI 60 human tumor cell line screen (SRB); assay type: cell-based; settings: EKVX (Non-Small Cell Lung Cancer); 48 h
[1] = tested on: primary CD138+ myeloma cells; experiment: Viability of primary patient samples (Annexin V, anti-CD138, flow cytometry); assay type: cell-based, human; settings: 24 hours
Method: (§1) Apoptosis was measured by staining cells treated with compounds of Formula I with annexin V-fluorescein isothiocyanate and propidium iodide (both from Biovision Research Products, Mountain View, Calif.) and flow cytometry according to manufacturer's instructions and as previously described [Blood. 2005, 105(10), 4043-4050]. Experiments were performed at least in duplicate and repeated at least twice (n=4-20 data points). Viable primary myeloma cells were identified by staining with phycoerythrin-conjugated mouse monoclonal anti-CD138 antibody (20 μL/[…] cells; Beckman Coulter, Brea, Calif.). The percentage of myeloma cells that were CD138 positive and annexin V negative after compounds of Formula (I) treatment compared with untreated samples was quantified as a marker of cell viability as previously described [Blood. 2007, 109(12), 5430-5438].
(§2) Effects of a representative of compounds of Formula I (the compound of Example 1) on the viability of primary malignant and normal hematopoietic cells isolated from patient samples was also studied. […] Viability of normal hematopoietic cells (CD138−) and myeloma cells (CD138+) were measured by flow cytometry with PE-labeled anti-CD138 and FITC-labeled Annexin V co-staining. […]

[2] = tested on: normal mononuclear hematopoietic cells (CD138−); experiment: as above; assay type: cell-based; settings: 24 hours
Method: as §1, §2

[3] = tested on: standard panel of 12 tumor cell lines; experiment: Hollow fiber assay (HFA); assay type: in vivo, mouse; settings: ip, 75 mg/kg/dose and 35.5 mg/kg/dose, QD x 4
Method: Hollow fibre assay in vivo pharmacodynamic studies were carried out. This in vivo animal model uses semi-permeable biocompatible fibres that are filled with cancer cells, heat-sealed and implanted surgically (s.c. or i.p.) in mice or rats, which can then be treated with chemotherapeutics. Many different cell lines from different tissue origins and cellular characteristics can be encapsulated within the fibres, providing a cost-effective screening method.
The Oncology Program Screening and Characterization Strategy group at NCI uses HFA, which provides quantitative indices of drug efficacy with minimal expenditures of time and materials. Thus, the HFA is being utilized as the initial in vivo experience for compounds of Formula I.
A total of 3 different tumor lines are prepared for each experiment so that each mouse receives 3 intraperitoneal implants (1 of each tumor line) and 3 subcutaneous implants (1 of each tumor line). A compound is considered for xenograft testing if it produces cell kill of any cell line at either dose level evaluated, or it has a combined ip+sc score of 20 or greater, a sc score of 8 or greater. […]
The compound of Example 1 was evaluated in an HFA assay via ip administration at two doses; a 75 mg/kg/dose and a 35.5 mg/kg/dose, QD […] 4. […]

MM.1S tumor cells = experiment: Myeloma MM.1S mouse xenograft model; assay type: in vivo
Method: The mice were irradiated (200 rads) using a Co60 irradiator source. After 24 his, each mouse was inoculated subcutaneously with 5×10^6 MM.1S tumor cells in 0.1 ml PBS for tumor development. Treatments were started when the tumor volume reached 100 mm^3. Each treatment group consisted of 10 mice. The compound of Example 1 was administrated to the tumor-bearing mice according to a specific predetermined regimen.

[4] = target: purified beta proteasome subunits from Thermoplasma acidophilum; whole cell lysates from LP1 (Thermoplasma acidophilum, UniProt P28061); experiment: Enzymatic activity of purified proteasomes (FIG. 1); assay type: biochemical, Thermoplasma acidophilum; human; settings: compared to bortezomib
Sequence of purified beta proteasome subunits from Thermoplasma acidophilum; whole cell lysates from LP1 (P28061 9-211): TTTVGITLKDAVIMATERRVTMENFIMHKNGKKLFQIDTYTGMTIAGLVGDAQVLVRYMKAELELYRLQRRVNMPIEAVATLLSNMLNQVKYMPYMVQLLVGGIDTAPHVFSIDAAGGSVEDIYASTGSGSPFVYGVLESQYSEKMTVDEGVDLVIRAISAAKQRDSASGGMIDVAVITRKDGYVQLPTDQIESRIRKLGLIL
Sequence of purified beta proteasome subunits from Thermoplasma acidophilum; whole cell lysates from LP1 (P25156 whole entry partner): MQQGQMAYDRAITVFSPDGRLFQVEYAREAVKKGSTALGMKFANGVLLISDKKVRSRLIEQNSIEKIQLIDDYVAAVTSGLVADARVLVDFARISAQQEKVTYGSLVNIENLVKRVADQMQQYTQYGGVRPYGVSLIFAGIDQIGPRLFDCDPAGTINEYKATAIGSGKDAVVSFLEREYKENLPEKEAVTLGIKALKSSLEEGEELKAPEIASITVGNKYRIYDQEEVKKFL
Method: Purified beta proteasome subunits from the archaebacteria Thermoplasma acidophilum (A) or whole cell lysates from the human myeloma cell line LP1 (B).
Increasing concentrations ([…]) of compounds of Formula (I) and bortezomib were incubated with […] purified beta subunits of proteasomes isolated from Thermoplasma acidophilum in assay buffer supplemented with 2 mM ATP. DMSO alone was used as a control. After 1 hour of incubation at 37° C., the Suc-Leu-Leu-Val-Tyr-AMC substrate was added at a final concentration of 40 μM and CT-L proteasome activity was measured as described above for tumor cell lysates.
Purified beta proteasome subunits from the archaebacteria Thermoplasma acidophilum (A) and whole cell lysates from the human myeloma cell line LP1 (B) were used in the study.

[5] = 100 mg/kg p.o, days 1, 3, 5/wk×4 wks

Cc1ncc(C(=O)N[C@@H](COC(F)F)C(=O)N[C@@H](COC(F)F)C(=O)N[C@@H](Cc2ccccc2)C(=O)[C@@]2(C)CO2)s1 [Example 1, 2-methyl-thiazole-5-carboxylic acid ((S)-1-{(S)-1-[(S)-1-benzyl-2-((R)-2-methyloxiranyl)-2-oxo-ethylcarbamoyl]-2-difluoromethoxyethylcarbamoyl}-2-difluoromethoxyethyl)-amide]
Log10GI50 (EKVX): −6.22
Log10LC50 (EKVX): >−4.00
Log10TGI50 (EKVX): >−4.00
viability of primary CD138+ myeloma cells over CD138− normal hematopoietic cells ([1]; patient bone marrow or peripheral blood samples): selectively reduced the viability
cell death in the plasma cells of the myeloma patients ([1]; patient samples): nanomolar concentrations
LD50 normal mononuclear hematopoietic cells [2]: > 2.5 µM
cell killing in hollow fiber assay [3]: produced cell killing of multiple cell lines
antitumor activity vs. control (MM.1S tumor cells; 50 mg/kg p.o, qd×28 days): statically significant antitumor activity
gross adverse effects including reductions in body weight or alterations in behaviour (MM.1S tumor cells; 50 mg/kg p.o, qd×28 days): no observed gross adverse effects
antitumor activity vs. control (MM.1S tumor cells; [5]): statically significant antitumor activity
gross adverse effects including reductions in body weight or alterations in behaviour (MM.1S tumor cells; [5]): no observed gross adverse effects
effect on the enzymatic activity of purified proteasomes [4]: disrupts the ubiquitin-proteasome system
